Key:
[1] = pig, in vivo
in vivo = settings: pig
[2] = human, in vivo, sc; cited from earlier work

enfuvirtide
difference in TEWL between treatment site and control site [1]: not statistically different | bioavailability (in vivo): ~30% | patients experiencing injection site reaction [2]: up to 98%

Reference: patent US20160303360A1, “Ultrasonic Transducer and Transdermal Delivery System” (Actuated Medical, Inc., priority 2015, published 2016)
